{"source": "patent US11401516B2", "about": "“Channel modulators” (AUCKLAND UNISERVICES LIMITED, priority 2014, dated 2022)", "tested_on": "Cx43 mRNA in ARPE-19 cells", "experiment": "Real-time reverse transcription PCR of Cx43 mRNA", "assay_type": "cell-based, human", "conditions": "50 μM, 1 h, versus untreated and vehicle controls", "description": "In the below Examples 3, 6 and 7 using human retinal epithelial (ARPE-19) cells, the cells were grown in DMEM/F: 12 (Invitrogen), supplemented with 10% fetal calf serum (FCS), 100 units/mL of penicillin, 100 μg/mL of streptomycin, and 0.25 μg/mL of Fungizone® Antimycotic (Invitrogen).\nReal time reverse transcription PCR was used to determine the relative level of Cx43 mRNA. A confluent monolayer of ARPE-19 cells was treated with Tonabersat for 1 hour. Cells were harvested with TRIzol® (Life Technologies), and total RNA was isolated using […] according to manufacturer's instructions. All RNA samples were quantified using a nanodrop 1000 micro volume spectrophotometer (Thermo Scientific). cDNA from samples were synthesised using SuperScript® III First-Strand Synthesis SuperMix (Invitrogen) according to manufacturer's instructions. Primer sequences for hCx43, GenBank Accession No. M65188.1, were obtained from the Harvard Primer bank. […] The appropriate reference gene to be used for relative fold-difference in Cx43 mRNA was determined by screening commonly used house-keeping genes, ß-actin [ACTB], Hypoxanthine phosphoribosyltransferase 1 [HPRT1], peptidylprolyl isomerase A [PPIA], and glyceraldehyde-3-phosphate dehydrogenase [GAPDH]. […] Relative changes in Cx43 mRNA expression were calculated as fold-differences against ß-actin using the 2-ΔΔCt method. […]", "data": [{"smiles": "CC(=O)c1ccc2c(c1)[C@H](NC(=O)c1ccc(F)c(Cl)c1)[C@H](O)C(C)(C)O2", "note": "[Tonabersat, N-[(3S,4S)-6-acetyl-3-hydroxy-2,2-dimethyl-3,4-dihydrochromen-4-yl]-3-chloro-4-fluorobenzamide]", "values": [{"measurement": "Cx43 mRNA level relative to ß-actin", "value": "no significant difference in Cx43 mRNA"}]}]}
